Source: patent US9676701B2, “Cyclopropylamine derivatives useful as LSD1 inhibitors” (Oryzon Genomics, S.A., priority 2010, dated 2017)
pKi: −log10 of the molar value. Structures can show the parent of a compound that is named as a salt. Where two headings read alike, the source gives them in different places.

Assays:
[1] = target: T1, Human recombinant LSD1 protein (Homo sapiens (Human), UniProt O60341); settings: for pKi: read-out: LSD1 (Ki)
Excerpt: (§1) The ability of the compounds of the invention to inhibit LSD1 can be tested as follows. Human recombinant LSD1 protein was purchased from BPS Bioscience Inc. In order to monitor LSD1 enzymatic activity and/or its inhibition rate by our inhibitor(s) of interest, di-methylated H3-K4 peptide (Millipore) was chosen as a substrate. The demethylase activity was estimated, under aerobic conditions, by measuring the release of H2O2 produced during the catalytic process, using the Amplex® Red peroxide/peroxidase-coupled assay kit (Invitrogen).
(§2) Within the experiment, each concentration of inhibitor was tested in triplicate. […] The enzymatic reactions were set up in a 50 mM sodium phosphate, pH 7.4 buffer. At the end of the incubation, Amplex® Red reagent and horseradish peroxidase (HPR) solution were added to the reaction according to the recommendations provided by the supplier (Invitrogen), and left to incubate for 30 extra minutes at room temperature in the dark. A 1 μM H2O2 solution was used as a control of the kit efficiency.
(§3) The Ki (IC50) of each inhibitor was estimated at half of the maximum activity.

MAO-A [2] = target: T2, MAO-A (Homo sapiens (Human), UniProt P21397); settings: read-out: MAO-A (Ki)
MAO-B [3] = target: T3, MAO-B (Homo sapiens (Human), UniProt P27338); settings: read-out: MAO-B (Ki)
[4] = target: T1, Human recombinant LSD1 protein; experiment: biochemical
Excerpt: as §1, §2, §3

MAO-B [5] = target: T3, MAO-B; experiment: biochemical
MAO-A [6] = target: T2, MAO-A; experiment: biochemical

T3 sequence (P27338 whole entry): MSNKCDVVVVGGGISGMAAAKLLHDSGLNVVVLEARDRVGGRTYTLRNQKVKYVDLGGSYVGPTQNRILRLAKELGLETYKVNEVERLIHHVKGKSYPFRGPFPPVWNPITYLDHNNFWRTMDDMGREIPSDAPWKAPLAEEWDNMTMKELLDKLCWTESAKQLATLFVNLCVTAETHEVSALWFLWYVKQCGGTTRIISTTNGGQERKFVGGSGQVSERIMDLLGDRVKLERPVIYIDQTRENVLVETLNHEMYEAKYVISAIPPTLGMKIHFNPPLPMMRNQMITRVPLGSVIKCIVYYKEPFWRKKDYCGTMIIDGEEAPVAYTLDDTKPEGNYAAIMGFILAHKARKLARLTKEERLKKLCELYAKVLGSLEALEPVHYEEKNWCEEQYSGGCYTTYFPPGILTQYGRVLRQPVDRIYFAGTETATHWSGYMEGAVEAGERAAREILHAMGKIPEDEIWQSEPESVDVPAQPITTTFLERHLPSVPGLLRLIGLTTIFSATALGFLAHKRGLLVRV
T2 sequence (P21397 whole entry): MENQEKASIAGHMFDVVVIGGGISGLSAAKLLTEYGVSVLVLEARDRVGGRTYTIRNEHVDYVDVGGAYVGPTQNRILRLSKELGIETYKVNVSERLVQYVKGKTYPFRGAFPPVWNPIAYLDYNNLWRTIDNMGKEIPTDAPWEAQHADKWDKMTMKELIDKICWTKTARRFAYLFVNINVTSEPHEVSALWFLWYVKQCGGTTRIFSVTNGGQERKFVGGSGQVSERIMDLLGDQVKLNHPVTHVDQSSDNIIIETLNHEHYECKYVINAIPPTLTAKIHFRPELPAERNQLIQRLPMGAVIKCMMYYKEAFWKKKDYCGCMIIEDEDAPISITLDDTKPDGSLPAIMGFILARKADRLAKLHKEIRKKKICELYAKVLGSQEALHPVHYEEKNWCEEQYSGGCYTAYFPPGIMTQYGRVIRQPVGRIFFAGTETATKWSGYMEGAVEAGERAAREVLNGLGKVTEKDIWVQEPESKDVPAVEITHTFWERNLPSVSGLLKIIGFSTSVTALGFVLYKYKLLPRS

| Compound | pKi [1] | pKi (MAO-A [2]) | pKi (MAO-B [3]) | pKi [4] | pKi (MAO-B [5]) | pKi (MAO-A [6]) | LSD1 (Ki) [1] |
| --- | --- | --- | --- | --- | --- | --- | --- |
| N[C@H]1C[C@@H]1c1ccc(-c2cccc(C(F)(F)F)c2)nc1-c1ccc(O)cc1 (relative stereo) [Example 78, 4-(3-((trans)-2-aminocyclopropyl)-6-(3-(trifluoromethyl)phenyl)pyridin-2-yl)phenol hydrochloride] | 4.40 to 6.00 | 4.40 to 6.00 | 4.40 to 6.00 | – | – | – | – |
| N[C@H]1C[C@@H]1c1ccc(-c2ccc(C(F)(F)F)cc2)nc1 (relative stereo) [Example 9, (trans)-2-(6-(4-(trifluoromethyl)phenyl)pyridin-3-yl)cyclopropanamine hydrochloride] | – | 4.40 to 6.00 | – | 6.00 to 7.00 | 7.00 to 9.00 | – | – |
| N#Cc1cccc(S(=O)(=O)Nc2cccc(-c3ccc([C@H]4C[C@@H]4N)cn3)c2)c1 (relative stereo) [Example 100, N-(3-(5-((trans)-2-aminocyclopropyl)pyridin-2-yl)phenyl)-3-cyanobenzenesulfonamide hydrochloride] | – | – | – | – | – | 6.00 to 7.00 | – |
| COc1ccc(-c2ccc([C@H]3C[C@@H]3N)cn2)cc1 (relative stereo) [Example 10, (trans)-2-(6-(4-methoxyphenyl)pyridin-3-yl)cyclopropanamine hydrochloride] | – | – | – | 6.00 to 7.00 | 4.40 to 6.00 | 4.40 to 6.00 | – |
| N[C@H]1C[C@@H]1c1ccc(-c2ccc(-c3ccccc3)cc2)cc1 [Example 2, (trans)-2-(terphenyl-4-yl)cyclopropanamine hydrochloride] | – | – | – | 6.00 to 7.00 | 6.00 to 7.00 | – | – |
| COc1cc(-c2cccc(O)c2)ccc1[C@H]1C[C@@H]1N (relative stereo) [Example 106, 4′-((trans)-2-aminocyclopropyl)-3′-methoxy-[1,1′-biphenyl]-3-ol hydrochloride] | – | – | 4.40 to 6.00 | 6.00 to 7.00 | – | 6.00 to 7.00 | – |
| CS(=O)(=O)Nc1cc(Cl)cc(-c2ccc([C@H]3C[C@@H]3N)cc2)c1 (relative stereo) [Example 94, N-(4′-((trans)-2-aminocyclopropyl)-5-chloro-[1,1′-biphenyl]-3-yl)methanesulfonamide hydrochloride] | – | – | – | 7.00 to 9.00 | 6.00 to 7.00 | 6.00 to 7.00 | – |
| N[C@H]1C[C@@H]1c1ccc(-c2ccc3c(c2)[nH]c2ccccc23)nc1 (relative stereo) [Example 61, (Trans)-2-(6-(9H-carbazol-2-yl)pyridin-3-yl)cyclopropanamine hydrochloride] | 4.40 to 6.00 | 4.40 to 6.00 | 4.40 to 6.00 | – | – | – | – |
| CS(=O)(=O)Nc1cc(Cl)cc(-c2ccc([C@H]3C[C@@H]3N)cn2)c1 (relative stereo) [Example 95, N-(3-(5-((trans)-2-aminocyclopropyl)pyridin-2-yl)-5-chlorophenyl)methanesulfonamide hydrochloride] | – | – | – | – | – | 6.00 to 7.00 | – |
| N#Cc1ccc(O)c(-c2ccc([C@H]3C[C@@H]3N)cn2)c1 (relative stereo) [Example 89, 3-(5-((trans)-2-aminocyclopropyl)pyridin-2-yl)-4-hydroxybenzonitrile hydrochloride] | – | – | – | – | – | 6.00 to 7.00 | – |
| NC(=O)c1ccc(-c2nc(-c3cccc(C(F)(F)F)c3)ccc2[C@H]2C[C@@H]2N)cc1 (relative stereo) [Example 79, 4-(3-((trans)-2-aminocyclopropyl)-6-(3-(trifluoromethyl)phenyl)pyridin-2-yl)benzamide hydrochloride] | 4.40 to 6.00 | 4.40 to 6.00 | 4.40 to 6.00 | – | – | – | – |
| NC(=O)c1ccc(-c2ccc([C@H]3C[C@@H]3N)cn2)cc1 (relative stereo) [Example 18, 4-(5-((trans)-2-aminocyclopropyl)pyridin-2-yl)benzamide hydrochloride] | 4.40 to 6.00 | 4.40 to 6.00 | 4.40 to 6.00 | – | – | – | – |
| N[C@H]1C[C@@H]1c1ccc(-c2cccc(O)c2)s1 (relative stereo) [Example 113, 3-(5-((trans)-2-aminocyclopropyl)thiophen-2-yl)phenol trihydrochloride] | – | – | – | 7.00 to 9.00 | 6.00 to 7.00 | 6.00 to 7.00 | – |
| CNS(=O)(=O)c1cccc(-c2ccc([C@H]3C[C@@H]3N)cn2)c1 [Example 104, hydrochloride] | – | – | 4.40 to 6.00 | – | – | 6.00 to 7.00 | – |
| COc1ccc(C#N)cc1-c1ccc([C@H]2C[C@@H]2N)cc1.Cl (relative stereo) [Example 74, 4′-((trans)-2-aminocyclopropyl)-6-methoxybiphenyl-3-carbonitrile hydrochloride] | – | 4.40 to 6.00 | 4.40 to 6.00 | – | – | – | II-III |
| N[C@H]1C[C@@H]1c1ccc(-c2ccc(Cl)cc2)nc1 (relative stereo) [Example 7, (trans)-2-(6-(4-chlorophenyl)pyridin-3-yl)cyclopropanamine hydrochloride] | – | 4.40 to 6.00 | – | 6.00 to 7.00 | 6.00 to 7.00 | – | – |
| Cc1cc([C@H]2C[C@@H]2N)cnc1-c1cccc(C(F)(F)F)c1 (relative stereo) [Example 37, (trans)-2-(5-methyl-6-(3-(trifluoromethyl)phenyl)pyridin-3-yl)cyclopropanamine hydrochloride] | 4.40 to 6.00 | 4.40 to 6.00 | 4.40 to 6.00 | – | – | – | – |
| Cc1cc([C@H]2C[C@@H]2N)cnc1-c1cccc(Cl)c1 (relative stereo) [Example 36, (trans)-2-(6-(3-chlorophenyl)-5-methylpyridin-3-yl)cyclopropanamine] | 4.40 to 6.00 | 4.40 to 6.00 | 4.40 to 6.00 | – | – | – | – |
| N[C@H]1C[C@@H]1c1ccc(-c2cccc(C(F)(F)F)c2)nc1-c1ccc(Cl)cc1 (relative stereo) [Example 77, (trans)-2-(2-(4-chlorophenyl)-6-(3-(trifluoromethyl)phenyl)pyridin-3-yl)cyclopropanamine hydrochloride] | 4.40 to 6.00 | 4.40 to 6.00 | 4.40 to 6.00 | – | – | – | – |
| N[C@H]1C[C@@H]1c1ccc(-c2cc(Cl)cc(Cl)c2)nc1 (relative stereo) [Example 6, (Trans)-2-(6-(3,5-dichlorophenyl)pyridin-3-yl)cyclopropanamine hydrochloride] | – | 4.40 to 6.00 | – | 6.00 to 7.00 | 6.00 to 7.00 | – | – |
| CS(=O)(=O)Nc1cc(-c2ccc([C@H]3C[C@@H]3N)cc2)ccc1F (relative stereo) [Example 96, N-(4′-((trans)-2-aminocyclopropyl)-4-fluoro-[1,1′-biphenyl]-3-yl)methanesulfonamide hydrochloride] | – | – | 4.40 to 6.00 | 7.00 to 9.00 | – | 6.00 to 7.00 | – |
| CS(=O)(=O)Nc1ccccc1-c1ccc([C@H]2C[C@@H]2N)cc1.Cl (relative stereo) [Example 73, N-(4′-((trans)-2-aminocyclopropyl)biphenyl-2-yl)methanesulfonamide hydrochloride] | – | 4.40 to 6.00 | 4.40 to 6.00 | – | – | – | II-III |
| Cl.N[C@H]1C[C@@H]1c1ccc(-c2ccc3cn[nH]c3c2)nc1 (relative stereo) [Example 60, (Trans)-2-(6-(1H-indazol-6-yl)pyridin-3-yl)cyclopropanamine hydrochloride] | – | 4.40 to 6.00 | 4.40 to 6.00 | – | – | – | II-III |
| N[C@H]1C[C@@H]1c1cnc(-c2cccc(O)c2)s1 (relative stereo) [Example 116, 3-(5-((trans)-2-aminocyclopropyl)thiazol-2-yl)phenol hydrochloride] | – | – | 4.40 to 6.00 | 7.00 to 9.00 | – | 7.00 to 9.00 | – |
| N#Cc1ccc(O)c(-c2ccc([C@H]3C[C@@H]3N)cc2)c1 (relative stereo) [Example 87, 4′-((trans)-2-aminocyclopropyl)-6-hydroxybiphenyl-3-carbonitrile hydrochloride] | – | – | – | – | – | 6.00 to 7.00 | – |
| Enantiomers of 4′-((trans)-2-aminocyclopropyl)biphenyl-3-ol hydrochloride [Example 63] | 7.00 to 9.00 | 4.40 to 6.00 | 4.40 to 6.00 | – | – | – | – |
